# Values quoted from earlier work as cited in patent publication US10016482B2, “Insulin independence among patients with diabetes utilizing an optimized hamster REG3 gamma peptide” (priority 2014, dated 2018).
# Where two headings read alike, the source gives them in different places. No end group written: not given here.
# How the values were obtained:
# [1] = system: human extra-islet pancreatic exocrine tissue; details: in vitro; exocrine ductal tissue separated from endocrine beta cells
# [2] = system: new small islets developing from non-endocrine tissue
# [3] = system: patients with type 1 diabetes; details: for study subjects / patients dropping out of the clinical trials due to local side-effects: man, local injection site reactions (pain, bruising, infection, skin site reactions)
sequence,measurement,setting,value
"IGLHDPSHGTLPNGS [hamster Reg3 gamma peptide, native 15 amino acid hamster Reg3 gamma peptide]",transformation of exocrine ductal tissue,[1],transform into new beta cells
same,"levels of new islet markers (NGN3, NKX6.1, SOX9, INS)",[2]; five days after treatment,increased levels
same,increase in the volume of new small islets,[2]; islets developing from non-endocrine tissue,2 fold
same,increase in endogenous insulin production,"[3]; by day 54, type 1 patients with no baseline c-peptide",27%
same,study subjects / patients dropping out of the clinical trials due to local side-effects,[3]; listed as 15-amino acid hamster Reg3 gamma peptide,⅓
same,study subjects / patients dropping out of the clinical trials due to local side-effects,[3]; listed as 15 amino acid hamster Reg3gamma peptide,more than ⅓
same,study subjects / patients dropping out of the clinical trials due to local side-effects,[3]; listed as hamster Reg3 gamma 15 amino acid peptide,⅓
same,rise in stimulated c-peptide,[3]; type 1 patients with no detectable c-peptide at baseline,27%
same,insulin requirements,"[3]; type 1 patients, within 54 days of usage",significant reduction
